Measurements reported in patent publication US12116359B2, “EBNA1 inhibitor crystalline forms, and methods of preparing and using same” (THE WISTAR INSTITUTE, priority 2018, dated 2024).
“Also recorded” adds a separate entry of the source.

Experiments:
Type in all cases: physicochemical
[1] = Storage stability of solid forms at elevated temperature/humidity (XRPD, HPLC purity); conditions: one week
Protocol: Purity analysis was performed on an Agilent HP1100 series system equipped with a diode array detector and using ChemStation software vB.04.03 using the method detailed in Table 1.
Amorphous (I) free acid was stored at 40° C./75% RH (open vial), 25° C./97% RH (open vial) and 60° C. (closed vial, ambient humidity) for 8 weeks.
Characterization by XRPD, ^1H NMR, TGA, DSC and storage at 40° C./75% RH for one week was carried out. Details are found in Table 10.

[2] = Variable temperature XRPD; conditions: 25-165° C.
Protocol: Samples run under non-ambient conditions were mounted on a silicon wafer with heat-conducting compound. The sample was then heated to the appropriate temperature at 30° C./min and subsequently held isothermally for 1 minute before data collection was initiated.

[3] = Gravimetric vapour sorption (GVS); conditions: for Hygroscopicity: GVS, 0-90% RH
Protocol: Sorption isotherms were obtained using a SMS DVS Intrinsic moisture sorption analyzer, controlled by DVS Intrinsic Control software. The sample temperature was maintained at 25° C. by instrument controls. The humidity was controlled by mixing streams of dry and wet nitrogen, with a total flow rate of 200 ml/min. The relative humidity was measured by a calibrated Rotronic probe (dynamic range of 1.0-100% RH), located near the sample. The weight change (mass relaxation) of the sample as a function of % RH was constantly monitored by the microbalance (accuracy ±0.005 mg). Typically 5-20 mg of sample was placed in a tared mesh stainless steel basket under ambient conditions. The sample was loaded and unloaded at 40% RH and 25° C. (typical room conditions). A moisture sorption isotherm was performed as outlined below (2 scans giving 1 complete cycle). The standard isotherm was performed at 25° C. at 10% RH intervals over a 0-90% RH range. Data analysis was carried out using Microsoft Excel. The sample was recovered after completion of the isotherm and re-analyzed by XRPD.

[4] = Storage stability of solid forms at elevated temperature/humidity (XRPD, HPLC purity); conditions: 25° C./97% RH, one week; listed as Crystalline Pattern 5
[5] = Stability assessment of Pattern 5 slurried in solvents at 4 or 50° C.; conditions: for Solid form recovered in stability assessment: 4 and 50° C., 8 solvents including solvent mixtures, XRPD; for Observations Overnight at 4° C. maturation / Observations Overnight at 50° C. maturation: 16 h
Protocol: The aim of this set of experiments was to test the stability of Pattern 5 in different conditions by slurring the material at either 4 or 50° C. in a range of 8 selected solvents including mixtures.
The supplied material was dissolved or suspended in the chosen solvent at r.t. Solvents were added in 10 vol. aliquots up to 30 vol. and observations were recorded; if a solution was obtained at any point then no further additions were made. Samples were kept at 4° C. or 50° C. over 16 h, and analyzed by XRPD. The solids were filtered and analyzed by XRPD. The solutions were allowed to evaporate at r.t. to afford solids which were also analyzed by XRPD.

[6] = listed as Crystalline Pattern 5
[7] = EtOAc, solid after evaporation at r.t.
[8] = EtOAc/EtOH (1:3), solid after evaporation at r.t.
[9] = EtOAc/EtOH (3:1), solid after evaporation at r.t.

O=C(O)c1cccc(C#Cc2ccc(COC3CCOCC3)cc2)c1-c1ccc2cc[nH]c2c1 [Pattern 5, 2-(1H-Indol-6-yl)-3-[4-(tetrahydro-pyran-4-yloxymethyl)-phenylethynyl]-benzoic acid]
XRPD post 25° C./97% RH ([1]; 25° C./97% RH): remained unchanged by XRPD
HPLC Purity after storage at 25° C./97% RH (Pharmorphix generic method) ([1]; 25° C./97% RH, initial purity 98.3% A.U.C.): 98.0 % A.U.C.
XRPD post 40° C./75% RH ([1]; 40° C./75% RH): remained unchanged by XRPD
HPLC Purity after storage at 40° C./75% RH (Pharmorphix generic method) ([1]; 40° C./75% RH, initial purity 98.3% A.U.C.): 98.0 % A.U.C.
XRPD post 40° C./75% RH ([1]; 40° C./75% RH, listed as Crystalline Pattern 5): No change in crystalline form; also recorded: Unchanged
Variable temperature XRPD [2]: remained as Pattern 5
Variable temperature XRPD [2, 6]: Remained as Pattern 5 from 25-165 °C
Hygroscopicity [3]: non-hygroscopic
Hygroscopicity [3, 6]: non-hygroscopic; also recorded: not hygroscopic
XRPD after GVS ([3]; after 0-90% RH isotherm, listed as Crystalline Pattern 5): Unchanged by XRPD
GVS moisture uptake ([3]; between 0-90% RH, 25° C., listed as Crystalline Pattern 5): 0.3%
XRPD post 25° C./97% RH [4]: No change in crystalline form; also recorded: Unchanged
Solid form recovered in stability assessment [5]: no change in solid form
Solid form recovered in stability assessment [5, 6]: Pattern 5 being recovered in all cases
Observations Overnight at 4° C. maturation ([5]; EtOAc): solution
XRPD after stability assessment at 4° C. [5, 7]: Pattern 5
Observations Overnight at 50° C. maturation ([5]; EtOAc): solution
XRPD after stability assessment at 50° C. [5, 7]: Pattern 5
Observations Overnight at 4° C. maturation ([5]; EtOAc/EtOH (1:3)): solution
XRPD after stability assessment at 4° C. [5, 8]: Pattern 5
Observations Overnight at 50° C. maturation ([5]; EtOAc/EtOH (1:3)): solution + yellow solid
XRPD after stability assessment at 50° C. [5, 8]: Pattern 5
Observations Overnight at 4° C. maturation ([5]; EtOAc/EtOH (3:1)): solution
XRPD after stability assessment at 4° C. [5, 9]: Pattern 5
Observations Overnight at 50° C. maturation ([5]; EtOAc/EtOH (3:1)): solution + yellow solid
XRPD after stability assessment at 50° C. [5, 9]: Pattern 5
XRPD after stability assessment at 4° C. ([5]; EtOH): Pattern 5
Observations Overnight at 4° C. maturation ([5]; EtOH): White Suspension
Observations Overnight at 50° C. maturation ([5]; EtOH): solution
XRPD after stability assessment at 50° C. ([5]; EtOH, solid after evaporation at r.t.): Pattern 5
XRPD after stability assessment at 4° C. ([5]; Heptane): Pattern 5
Observations Overnight at 4° C. maturation ([5]; Heptane): White Suspension
XRPD after stability assessment at 50° C. ([5]; Heptane): Pattern 5
Observations Overnight at 50° C. maturation ([5]; Heptane): White Suspension
XRPD after stability assessment at 4° C. ([5]; IPA): Pattern 5
Observations Overnight at 4° C. maturation ([5]; IPA): White Suspension
Observations Overnight at 50° C. maturation ([5]; IPA): solution + yellow solid
XRPD after stability assessment at 50° C. ([5]; IPA, solid after evaporation at r.t.): Pattern 5
XRPD after stability assessment at 4° C. ([5]; MIBK): Pattern 5
Observations Overnight at 4° C. maturation ([5]; MIBK): Off-White Suspension
Observations Overnight at 50° C. maturation ([5]; MIBK): solution
XRPD after stability assessment at 50° C. ([5]; MIBK, solid after evaporation at r.t.): Pattern 5
XRPD after stability assessment at 4° C. ([5]; TBME): Pattern 5
Observations Overnight at 4° C. maturation ([5]; TBME): White Suspension
XRPD after stability assessment at 50° C. ([5]; TBME): Pattern 5
Observations Overnight at 50° C. maturation ([5]; TBME): White Suspension
